Measurements published in patent publication US20220152082A1, “Methods for Cancer Diagnosis, Prognosis or Treatment” (AnPac Bio-Medical Science Co., Ltd., priority 2019, published 2022).

Legend:
LINC00472 [1] = assay: TNF-α treatment, LINC00472 expression; format: cell-based; details: breast cancer cells, TNF-α 10 ng/ml, 24 hours
Procedure: Total RNA was extracted from fresh-frozen tumor samples and cultured tumor cells using the Allprep DNA/RNA kit (Qiagen). RNA samples were reverse-transcribed (RT) to cDNA using the cDNA Reverse Transcription kit (LifeTech), and analyzed for LINC00472 expression with real-time PCR (qPCR).
TNF-α (Sigma-Aldrich), diluted in the culture medium immediately before experiment, was added to cultured cells with a final concentration of 10 ng/ml. The cells were incubated for 24 hours before analysis. DMSO (Sigma-Aldrich) treated cells were used as control. Total RNA and proteins were extracted for analysis of LINC00472 expression and NF-κB activation.

NF-κB = assay: Western blot of p65 and IκBα phosphorylation, T47D; format: cell-based, human; details: 10 μM, 8 days
LINC00472 [2] = assay: qRT-PCR of LINC00472 expression, T47D; format: cell-based, human; details: 10 μM, 8 days
From the text: Total RNA was extracted from fresh-frozen tumor samples and cultured tumor cells using the […] kit (Qiagen). RNA samples were reverse-transcribed (RT) to cDNA using the cDNA Reverse Transcription kit (LifeTech), and analyzed for LINC00472 expression with real-time PCR (qPCR). Breast cancer cells were transfected with Lincode Human LINC00472 (79940) siRNA-SMART pool (D-001320-10-05) or Lincode Non-targeting Pool (D-001320-10-05), negative control from Dharmacon, following the manufacturer's protocol for Lipofectamine RNAiMAX (Thermo Fisher Scientific). The method of transfection was known in the art. Cell lysates were prepared for analysis after 36 hours of incubation of the transfected cells. […] After eight days of culture, cells were collected, and total RNA and proteins were extracted for qRT-PCR analysis of LINC00472 and western blot of ERα and NF-κB, respectively.

Compound | LINC00472 expression (LINC00472 [1]) | phosphorylation of p65 and IκBα (NF-κB) | expression of LINC00472 (LINC00472 [2]) | expression of LINC00472 (LINC00472 [2]; listed as tamoxifen)
TNF-α | no effect |  |  | 
CC/C(=C(\c1ccc(O)cc1)c1ccc(OCCN(C)C)cc1)c1ccccc1 [4-hydroxytamoxifen, 4-Hydroxytamoxifen] |  | increased | decreased | lowered
